Experimental data from patent US8685999B2, “Beta carboline sulphonylurea derivatives as EP4 receptor antagonists” (Merck Sharp & Dohme Corp., priority 2008, dated 2014).

Target: T1, EP4 (Homo sapiens, UniProt P35408)
T1 construct: expressed in transfected cells; membranes prepared by differential centrifugation
Assay: Prostanoid receptor binding assay (radioligand displacement binding assay)
Conditions: column marked X when IC50 < 1; read-out: IC50 (nm) X < 1
Method: Prostanoid receptor cDNAs corresponding to full length coding sequences are subcloned into the appropriate sites of mammalian expression vectors and transfected into HEK 293(ebna) cells. HEK 293(ebna) cells expressing the individual cDNAs are grown under selection and individual colonies are isolated after 2-3 weeks of growth using the cloning ring method and subsequently expanded into clonal cell lines.
Transfected HEK 293(ebna) cells are maintained in culture, harvested and membranes are prepared by differential centrifugation, following lysis of the cells in the presence of protease inhibitors, for use in receptor binding assays. Prostanoid receptor binding assays (for DP1, DP2 (CRTH2), EP1, EP2, EP3-III, EP4, FP, IP, and TP) are performed in 10 mM MES/KOH (pH 6.0) (EPs, FP and TP) or 10 mM HEPES/KOH (pH 7.4) (DPs and IP), containing 1 mM EDTA, 2.5-30 mM divalent cation and the appropriate radio-ligand. Synthetic compounds are added in DMSO which is kept constant at 1% (v/v) in all incubations. The reaction is initiated by addition of membrane protein. Non-specific binding is determined in the presence of 10 μM of the corresponding non-radioactive prostanoid. Incubations are conducted for 60-120 min at room temperature or 30° C. and terminated by rapid filtration. Specific binding is calculated by subtracting non specific binding from total binding. The residual specific binding at each ligand concentration is calculated and expressed as a function of ligand concentration in order to construct sigmoidal concentration-response curves. The binding affinity of the compounds is determined by calculating the equilibrium inhibition constant (Ki) from the equation Ki=InPt/1+[radio-ligand]/Kd where Kd is the equilibrium dissociation constant for the radio-ligand:receptor interaction and InPt is the inflection point of the dose-response curves.
Abramovitz, M. et al., Biochem, Biophys. Acta, 2000, 1483, pp. 285.

T1 sequence (P35408 whole entry): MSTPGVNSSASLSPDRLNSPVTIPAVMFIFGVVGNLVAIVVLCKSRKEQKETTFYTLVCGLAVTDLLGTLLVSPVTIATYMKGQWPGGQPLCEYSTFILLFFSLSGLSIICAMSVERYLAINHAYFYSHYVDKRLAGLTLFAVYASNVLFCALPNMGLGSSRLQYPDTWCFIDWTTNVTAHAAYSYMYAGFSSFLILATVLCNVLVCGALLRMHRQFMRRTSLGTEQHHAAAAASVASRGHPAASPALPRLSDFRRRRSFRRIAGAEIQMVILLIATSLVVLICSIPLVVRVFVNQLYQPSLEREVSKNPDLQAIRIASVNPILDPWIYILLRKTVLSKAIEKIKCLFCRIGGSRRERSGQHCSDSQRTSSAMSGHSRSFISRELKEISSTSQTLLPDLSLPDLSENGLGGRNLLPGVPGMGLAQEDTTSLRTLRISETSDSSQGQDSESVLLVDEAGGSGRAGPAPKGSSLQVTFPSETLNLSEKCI

- IC50: < 1 nM
Structure (SMILES): CN1CCc2c(n(-c3ccc(CC4(NC(=O)NS(=O)(=O)c5ccc(Cl)cc5)CC4)cc3)c3ccc(-c4nnc(-c5ccccc5)o4)cc23)C1=O [Example 3-5, 4-chloro-N-{[(1-{4-[2-methyl-1-oxo-6-(5-phenyl-1,3,4-oxadiazol-2-yl)-1,2,3,4-tetrahydro-9H-beta-carbolin-9-yl]benzyl}cyclopropyl)amino]carbonyl}benzenesulfonamide]
